Experimental data taken from patent US20250197641A1, “OPTICAL ABSORBENT” (priority 2023, published 2025).

What was measured:
Format in all cases: physicochemical
[1] = Pyrolysis temperature (Td 5%) analysis by TGA; conditions: 25-800° C., 10° C./min, N2
Description: The Td 5% is a value obtained through TGA (Thermogravimetric Analysis) analysis. It is the value (Td 5%) at a weight loss of 5% confirmed under the conditions of a temperature range of 25° C. to 800° C., a temperature increase rate of 10° C./min, and a nitrogen (N2) atmosphere of 60 cm^3/min.
Thermogravimetric Analysis (TGA) of the chemical compound was performed by using Scinco's TGA N-1000 equipment. The analysis was performed by using approximately 3 mg of sample (chemical compound) and the analysis was conducted under conditions of a temperature range of 25° C. to 800° C., a temperature increase rate of 10° C./min, and nitrogen (N2) atmosphere of 60 cm^3/min. The value at […] (Td 5%) was used as the Td decomposition temperature.

[2] = Solubility of the absorbent in methylene chloride; conditions: room temperature (about 25° C.)
Description: The solubility of the absorbent was evaluated. Solubility was determined based on the following criteria by evaluating the solubility of the absorbent in the solvent (MC, Methylene Chloride) at room temperature (about 25° C.).

[3] = Absorption spectra of absorption membrane before and after high temperature/high humidity evaluation (Test Example 2); conditions: 85% relative humidity, 120 hours; for ΔA = 100×(Af−Ai)/Ai / Δλ = 100×(λf−λi)λi: 85° C.; for Af, transmittance at the absorption maximum wavelength / λf, absorption maximum wavelength: absorption membrane after 85° C.; for Ai, transmittance at the absorption maximum wavelength / λi, absorption maximum wavelength: absorption membrane before 85° C.
Source text: FIGS. 4 to 6 are the absorption spectra of the absorption membranes prepared in Test Example 1 using the absorbents of Embodiments 1 to 3, respectively. FIGS. 7 to 9 are the absorption spectrum of the absorption membrane prepared in Test Example using the absorbents of Comparative Examples 1 to 3, respectively. In the FIGS., the spectra indicated before reliability is the result immediately after preparing the absorption membrane, and the spectra indicated after reliability is the result after high temperature/high humidity evaluation was performed on the absorption membrane. The high temperature/high humidity evaluation is an evaluation where the absorption membrane is maintained at a temperature of 85° C. under a relative humidity of 85% for 120 hours. In Tables 4 and 5, Af is the transmittance at the absorption maximum wavelength of the absorption membrane maintained at 85° C. under 85% relative humidity for 120 hours and λf is the absorption maximum wavelength for after case. Ai is the transmittance at the absorption maximum wavelength of the absorption membrane before being maintained at 85° C. under 85% relative humidity for 120 hours and λi is the absorption maximum wavelength for before case. In Tables 4 and 5, ΔA is a value calculated as 100×(Af−Ai)/Ai, and Δλ is a value calculated as 100×(λf−λi)λi.

[4] = Absorption maximum measurement; conditions: chloroform, about 10^-5 M
Description: The maximum absorption was evaluated by a conventional method. Specifically, the sample was dissolved in chloroform solvent at a concentration of about 10^−5 M and then evaluated using measuring equipment (Agilent, Varian Cary 4000).

[5] = Transmittance of absorption membrane before and after reliability evaluation (Test Example 1); conditions: for 425~465 nm Tave, Δ / 425~465 nm Tmin, Δ / 466~480 nm Tave, Δ / 466~480 nm Tmin, Δ / 480~560 nm Tave, Δ / λmax Tmax (transmittance at the absorption maximum), Δ: change before/after 85° C.; for 425~465 nm Tave, Δ / 425~465 nm Tmin, Δ / 466~480 nm Tave, Δ / 466~480 nm Tmin, Δ / 480~560 nm Tave, Δ / λmax Tmax (transmittance at the absorption maximum), Δ / 425~465 nm Tave, A / 425~465 nm Tmin, A / 466~480 nm Tave, A / 466~480 nm Tmin, A / 480~560 nm Tave, A: 85% RH, 120 hours; for 425~465 nm Tave, B / 425~465 nm Tmin, B / 466~480 nm Tave, B / 466~480 nm Tmin, B / 480~560 nm Tave, B: silicone resin membrane about 6 μm, before reliability evaluation; for 425~465 nm Tave, A / 425~465 nm Tmin, A / 466~480 nm Tave, A / 466~480 nm Tmin, A / 480~560 nm Tave, A: silicone resin membrane, after 85° C.
Description: The transmittance spectrum was measured using a spectrophotometer (Manufacturer: Perkinelmer, Product Name: Lambda 750 Spectrophotometer) on a specimen obtained by cutting the measurement object (e.g., an absorption membrane) so that the width and height were 10 mm and 10 mm, respectively. The transmittance spectrum was measured for each wavelength according to the equipment manual. The specimen was placed on a straight line between a measuring beam of the spectrophotometer and a detector and the transmittance spectrum was confirmed by setting the incident angle of the measuring beam to 0°. The incident angle of 0° is a direction substantially parallel to the surface normal direction of the specimen. The average transmittance within a certain wavelength range in the transmittance spectrum is the result of measuring the transmittance at each wavelength while increasing the wavelength by 1 nm starting from the shortest wavelength in the wavelength range, and then calculating the arithmetic average of the measured transmittances. The maximum transmittance is the maximum transmittance among the transmittances measured while increasing the wavelength by 1 nm and the minimum transmittance is the minimum transmittance among the transmittances measured while increasing the wavelength by 1 nm. For example, the average transmittance within the wavelength range of 350 nm to 360 nm is the arithmetic mean of the transmittance measured at the wavelength of 350 nm, 351 nm, 352 nm, 353 nm, 354 nm, 355 nm, 356 nm, 357 nm, 358 nm, 359 nm, and 360 nm. The maximum transmittance within the wavelength range of 350 nm to 360 nm is the highest transmittance measured at wavelengths of 350 nm, 351 nm, 352 nm, 353 nm, 354 nm, 355 nm, 356 nm, 357 nm, 358 nm, 359 nm and 360 nm and the minimum transmittance within the wavelength range of 350 nm to 360 nm is the lowest transmittance among the transmittances measured at wavelengths of 350 nm, 351 nm, 352 nm, 353 nm, 354 nm, 355 nm, 356 nm, 357 nm, 358 nm, 359 nm, and 360 nm.
A coating solution was prepared by mixing silicone resin (Dow Chemical, RSN-0217), absorbent, and solvent (cyclohexanone) as resin components. The mixing ratio of the resin component, absorbent, and solvent was set to be 69.3:0.99:29.7 in weight ratio (resin:absorbent:solvent).
The coating solution was coated on a transparent substrate (a glass substrate manufactured by SCHOTT) and maintained at 140° C. for about 2 hours to form an absorption membrane with a thickness of about 6 μm.
Tables 2 and 3 below summarize the transmittance of the absorption membrane before and after reliability evaluation in the ultraviolet and near-infrared regions. The reliability evaluation is an evaluation of maintaining the absorption membrane at 85° C. and under 85% relative humidity condition for 120 hours. In Table 2, B refers to the result before performing the reliability evaluation and A refers to the result after performing the reliability evaluation. Additionally, in Table 2, λmax means the transmittance at the absorption maximum.
In Tables 2 and 3, Δ is the rate of change (%) of each characteristic before and after the reliability evaluation, calculated as 100×[…]/B, where […], B is the value indicated by B in Table 2. In Table 2, Tmax refers to the highest transmittance within the corresponding wavelength region, Tave refers to the average transmittance within the corresponding wavelength region, and Tmin refers to the minimum transmittance within the corresponding wavelength region.

CCCCN1\C(=C/C=C/C=C/C=C/C2=[N+](CCCC)c3ccccc3C2(C)C)C(C)(C)c2ccccc21 [Comparative Example 1]
Td 5% [1]: 215 °C
Solubility [2]: A (When solubility is 1 mass % or more)
ΔA = 100×(Af−Ai)/Ai [3]: 69.0%
Δλ = 100×(λf−λi)λi [3]: −13%
Af, transmittance at the absorption maximum wavelength [3]: 36.0%
λf, absorption maximum wavelength [3]: 747 nm
Ai, transmittance at the absorption maximum wavelength [3]: 21.3%
λi, absorption maximum wavelength [3]: 748 nm
Maximum Absorption Wavelength [4]: 761 nm
425~465 nm Tave, Δ [5]: 0.2%
425~465 nm Tmin, Δ [5]: 1.0%
466~480 nm Tave, Δ [5]: −0.6%
466~480 nm Tmin, Δ [5]: −0.7%
480~560 nm Tave, Δ [5]: −0.3%
λmax Tmax (transmittance at the absorption maximum), Δ [5]: 14.7%
425~465 nm Tave, B [5]: 88.7%
425~465 nm Tmin, B [5]: 86.5%
466~480 nm Tave, B [5]: 90.1%
466~480 nm Tmin, B [5]: 89.8%
480~560 nm Tave, B [5]: 90.1%
425~465 nm Tave, A [5]: 88.9%
425~465 nm Tmin, A [5]: 87.5%
466~480 nm Tave, A [5]: 89.5%
466~480 nm Tmin, A [5]: 89.1%
480~560 nm Tave, A [5]: 89.8%

CCCCN1/C(=C\C=C2/CCC(/C=C/C3=[N+](CCCC)c4ccccc4C3(C)C)=C2Cl)C(C)(C)c2ccccc21 [Comparative Example 3]
Td 5% [1]: 186 °C
Solubility [2]: A (When solubility is 1 mass % or more)
ΔA = 100×(Af−Ai)/Ai [3]: 52.6%
Δλ = 100×(λf−λi)λi [3]: −12%
Af, transmittance at the absorption maximum wavelength [3]: 33.0%
λf, absorption maximum wavelength [3]: 818 nm
Ai, transmittance at the absorption maximum wavelength [3]: 21.6%
λi, absorption maximum wavelength [3]: 819 nm
Maximum Absorption Wavelength [4]: 815 nm
425~465 nm Tave, Δ [5]: −0.2%
425~465 nm Tmin, Δ [5]: 0%
466~480 nm Tave, Δ [5]: −0.9%
466~480 nm Tmin, Δ [5]: −0.6%
480~560 nm Tave, Δ [5]: −1.3%
λmax Tmax (transmittance at the absorption maximum), Δ [5]: 11.4%
425~465 nm Tave, B [5]: 87.3%
425~465 nm Tmin, B [5]: 86.5%
466~480 nm Tave, B [5]: 88.9%
466~480 nm Tmin, B [5]: 88%
480~560 nm Tave, B [5]: 90.4%
425~465 nm Tave, A [5]: 87%
425~465 nm Tmin, A [5]: 86.6%
466~480 nm Tave, A [5]: 88%
466~480 nm Tmin, A [5]: 87.5%
480~560 nm Tave, A [5]: 89.2%
